{"source": "patent US9011817B2", "about": "“Compounds and methods of making compounds” (The Board of Trustees of the Leland Stanford Junior …, priority 2009, dated 2015)", "key": {"primary T cells": {"tested_on": "primary T cells", "assay": "[18F]F-AraG uptake in purified primary T cells, stimulated or un-stimulated", "format": "cell-based, mouse", "settings": "for fold more uptake than un-stimulated primary T cells: 1 μCi, 60 minutes", "description": "Error bars represent mean of triplicate determinations+/−SEM., n=4 p=0.14 and 0.003 by two tailed, paired Student T test respectively.\n(§1) CCRF-CEM (acute lymphoblastic T leukemia cell line procured form ATCC) cells were maintained in RPMI 1640 (Cellgro) supplemented with 100 U penicillin/100 ug streptomycin/ml (Cellgro) and 10% fetal bovine serum (Gibco). 5×10^5 CCRF-CEM cells were plated in 12 well dishes. Cells were allowed to settle for one hour then [^18F]F-AraG was added to each well and incubated at 37° C. for indicated times. Primary T cells were isolated from spleens and thymus of out-bred mice. Briefly, tissues were minced and single cell suspensions made in RPMI supplemented as above. Cells were centrifuged at 300×g for 8 minutes at 4° C. and cell pellets were resuspended in phosphate buffered saline (PBS) supplemented with 0.5% bovine serum albumin (BSA). T cells were purified from the suspensions using Miltenyi Pan T antibodies and columns (Miltenyi Biotec) per manufacturer's directions. Purified T cells were either stimulated with 100 U/ml IL-2 (eBiosciences) for 24 or 48 hours, or 50 nM phorbol myristate acetate (PMA) (Fluka) with 1 μg/mL ionomycin (Sigma) for 48 hours or left unstimulated then exposed to 1 μCi of [^18F]F-AraG/10^6 cells for 60 minutes. All cells were then washed in 1×PBS, lysed and radioactivity of each well was determined by gamma counter for [^18F] samples. All results were done in triplicate and are expressed in counts per minute (CPM), standard errors were determined and student T tests performed."}, "CCRF-CEM cells [1]": {"tested_on": "CCRF-CEM cells", "assay": "[18F]F-AraG cell uptake in CCRF-CEM cells (gamma counter)", "format": "cell-based", "settings": "for fold more [18F]F-AraG uptake at 10 μCi as compared to 3 μCi: 5×10^5 CCRF-CEM cells", "description": "FIG. 2.2 illustrates a graph of 5×10^5 CCRF-CEM cells were labeled with ^18F-AraG (0.6 mCi/ml) for indicated times and doses. Uptake was measured on gamma counter. Bars represent mean of triplicate determinations+/−SEM.\nCells took up ˜2-fold more [^18F]F-AraG when exposed to 10 μCi, at 60 minutes (p=0.008) and at 120 minutes (p=0.001) as compared to 3 μCi. Error bars represent S.E.M.\nas §1"}, "[2]": {"assay": "micro PET scans in normal nude mice", "format": "in vivo", "settings": "initial scans"}, "CCRF-CEM cells [3]": {"tested_on": "CCRF-CEM cells", "assay": "Competition of cold 2F-AraG with 8-[3H]-AraG uptake in CCRF-CEM cells", "format": "cell-based", "settings": "increasing amount of 2F-AraG 1-100 μM, 60 or 120 minutes", "description": "FIG. 2.3a illustrates a graph of 5×10^5 CCRF-CEM cells were incubated, in triplicate, with 1 uCi 8H^3-AraG (1 mCi/ml) and increasing amounts of cold 2F-AraG or DMSO for either 60 or 120 minutes. Percent of control uptake was calculated as: measured cpm of sample/cpm accumulated 1 uCi 8[H^3]-AraG control×100.\nWe have successfully synthesized a novel ^18F derivative of 2-deoxyguanosine analog, 9-β-D-arabinofuranosylguanine (18F-AraG), to use as a molecular probe (FIG. 2.1). [^18F]AraG cell uptake was evaluated in leukemia cell line, CCRF-CEM, and was compared with [^3H]Arag cell uptake. […] To determine whether cold derivative 2F-AraG competes with the uptake of 8-[^3H]-AraG, we studied the [^3H]-Arag uptakes by CCRF-CEM, MOLT-4 (Leukemia cell line) and Raji (human Burkitt's lymphoma cell line) and competition with cold 2F-AraG (FIGS. 2.3a and 2.3b). […] Competition assays indicate that cold derivative 2F-Arag competes with the uptake of the 8-[^3H]-AraG, indicating similar uptake pathways."}, "[4]": {"settings": "cited from earlier work"}}}
{"molecule": "Nc1nc2c(ncn2[C@@H]2O[C@H](CO)[C@@H](O)[C@@H]2[18F])c(=O)[nH]1", "note": "[[^18F]F-AraG, 2′-Deoxy-2′-[^18F]fluoro-9-β-D-arabinofuranosylguanine]", "values": [{"measurement": "cell uptake (qualitative)", "setting": "primary T cells; activated primary thymocytes / primary T cells", "value": "take up [^18F]F-AraG to an appreciable level"}, {"measurement": "fold more uptake than un-stimulated primary T cells", "setting": "primary T cells; stimulated with 50 nM PMA and 1 μg/mL ionomycin, p=0.003", "value": 4.7, "unit": "fold"}, {"measurement": "fold more uptake than un-stimulated primary T cells", "setting": "primary T cells; stimulated with 100 U/mL interleukin 2, p=0.14", "value": 1.4, "unit": "fold"}, {"measurement": "fold more [18F]F-AraG uptake at 10 μCi as compared to 3 μCi", "setting": "CCRF-CEM cells [1]; 60 minutes, p=0.008", "value": "~2", "unit": "fold"}, {"measurement": "fold more [18F]F-AraG uptake at 10 μCi as compared to 3 μCi", "setting": "CCRF-CEM cells [1]; 120 minutes, p=0.001", "value": "~2", "unit": "fold"}, {"measurement": "dose dependence of uptake", "setting": "CCRF-CEM cells [1]; CCRF-CEM cells", "value": "dose dependent"}, {"measurement": "time course of uptake", "setting": "CCRF-CEM cells [1]; CCRF-CEM cells, 60 or 120 minutes", "value": "majority of the [^18F]F-AraG is taken up by cells within the first hour"}, {"measurement": "cell uptake (qualitative)", "setting": "CCRF-CEM cells [1]; CCRF-CEM leukemia cell line, unactivated", "value": "take up"}, {"measurement": "fold increase in [18F]F-AraG uptake, cells exposed to 10 μCi compared to 3 μCi", "setting": "CCRF-CEM cells [1]; unactivated CCRF-CEM cells, time not stated", "value": 2, "unit": "fold"}, {"measurement": "tissue uptake in micro PET", "setting": "[2]", "value": "taken up within the thymus and lymph nodes"}]}
{"molecule": "Nc1nc2c(ncn2[C@@H]2O[C@H](CO)[C@@H](O)[C@@H]2F)c(=O)[nH]1", "note": "[2F-AraG, 2′-Deoxy-2′-fluoro-9-β-D-arabinofuranosylguanine]", "values": [{"measurement": "effect on [3H]-AraG uptake", "setting": "CCRF-CEM cells [3]", "value": "decrease of the [^3H]-AraG uptake"}]}
{"molecule": "Nc1nc2c(ncn2[C@@H]2O[C@H](CO)[C@@H](O)[C@@H]2O)c(=O)[nH]1", "note": "[AraG, 9-β-D-arabinofuranosylguanine]", "values": [{"measurement": "therapeutic serum levels at which neurotoxic side effects are induced in some patients", "setting": "[4]", "value": "~150", "unit": "µM"}]}
